The record followed here is patent US12486253B2, “Therapeutics for the degradation of mutant BRAF” (C4 THERAPEUTICS, INC., priority 2021, dated 2025).

For the assay, the target named is BRAF V600E (Homo sapiens, UniProt P15056, V600E). Kind of assay: HiBiT cellular BRAF^V600E degradation assay. The conditions noted are these: A375.10 cells, 24 h; for DC50: concentration at which 50% of total cellular BRAF^V600E is degraded; for Emax: read-out: HiBit 24 h Emax. Type of assay: cell-based.
Where [1] appears, read: residual protein remaining in the cell.

In general, DC50 refers to the concentration at which degradation of the target reaches its halfway point. Read a high DC50 as a less potent degrader. As usually defined, the Emax is the greatest response seen or fitted, relative to the assay's reference.

Chain of BRAF V600E (P15056 whole entry V600E): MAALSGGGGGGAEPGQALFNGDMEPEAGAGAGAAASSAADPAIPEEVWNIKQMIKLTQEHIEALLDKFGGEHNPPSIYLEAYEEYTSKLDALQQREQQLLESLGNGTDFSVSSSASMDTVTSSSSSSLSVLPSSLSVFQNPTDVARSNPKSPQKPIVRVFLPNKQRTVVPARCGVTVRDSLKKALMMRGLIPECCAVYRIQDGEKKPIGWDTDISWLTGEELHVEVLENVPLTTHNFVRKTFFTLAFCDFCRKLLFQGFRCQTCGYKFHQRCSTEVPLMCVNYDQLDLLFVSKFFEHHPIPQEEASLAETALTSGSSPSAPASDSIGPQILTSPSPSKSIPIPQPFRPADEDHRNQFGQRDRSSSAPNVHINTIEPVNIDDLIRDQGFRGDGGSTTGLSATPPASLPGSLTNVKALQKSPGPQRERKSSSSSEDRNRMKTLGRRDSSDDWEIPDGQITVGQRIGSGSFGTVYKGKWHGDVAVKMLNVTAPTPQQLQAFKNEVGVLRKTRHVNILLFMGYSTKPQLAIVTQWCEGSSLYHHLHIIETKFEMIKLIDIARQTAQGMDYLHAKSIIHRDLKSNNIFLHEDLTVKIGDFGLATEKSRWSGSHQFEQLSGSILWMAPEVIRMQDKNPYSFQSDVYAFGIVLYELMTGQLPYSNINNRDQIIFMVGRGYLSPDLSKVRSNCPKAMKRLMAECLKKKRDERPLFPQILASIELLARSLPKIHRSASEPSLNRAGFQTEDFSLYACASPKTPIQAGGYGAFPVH

`CCN(C)S(=O)(=O)Nc1ccc(F)c(Oc2ccc3ncn(C4CCOC5(CCN(C(=O)CN6CCC(c7ccc(NC8CCC(=O)NC8=O)cc7F)CC6)CC5)C4)c(=O)c3c2)c1C#N` (stereo not drawn) [Example 29, 4-[6-[2-cyano-3-[[ethyl(methyl)sulfamoyl]amino]-6-fluorophenoxy]-4-oxoquinazolin-3-yl]-9-[2-[4-[4-[(2,6-dioxopiperidin-3-yl)amino]-2-fluorophenyl]piperidin-1-yl]acetyl]-1-oxa-9-azaspiro[5.5]undecane] gave a DC50 of 33.7 nM. The Emax under setting [1] is 12.1%.

Take `N#Cc1c(NS(=O)(=O)C2CCC2)ccc(F)c1Oc1ccc2ncn(-c3cnc(N4CCN(C(=O)CN5CCC(c6ccc(N[C@@H]7CCC(=O)NC7=O)cc6F)CC5)CC4)nc3)c(=O)c2c1` [Example 133, N-[2-cyano-3-[3-[2-[4-[2-[4-[4-[[(3R)-2,6-dioxopiperidin-3-yl]amino]-2-fluorophenyl]piperidin-1-yl]acetyl]piperazin-1-yl]pyrimidin-5-yl]-4-oxoquinazolin-6-yl]oxy-4-fluorophenyl]cyclobutanesulfonamide]: the DC50 was 27.2 nM. Under setting [1], the Emax is 8.2%.

Turning to `CCN(C)S(=O)(=O)Nc1ccc(F)c(Oc2ccc3ncn(C4CCC5(CCN(C(=O)CN6CCC(c7ccc(NC8CCC(=O)NC8=O)cc7F)CC6)CC5)C4)c(=O)c3c2C)c1C#N` (stereo not drawn) [Example 57, 6-[2-cyano-3-[[ethyl(methyl)sulfamoyl]amino]-6-fluorophenoxy]-3-[8-[2-[4-[4-[(2,6-dioxopiperidin-3-yl)amino]-2-fluorophenyl]piperidin-1-yl]acetyl]-8-azaspiro[4.5]decan-3-yl]-5-methyl-4-oxoquinazoline], half-maximal degradation (DC50) was put at 20.9 nM. Moreover, the Emax under setting [1] was 11.5%.

For the molecule `N#Cc1c(NS(=O)(=O)N2CCC(F)(F)C2)ccc(F)c1Oc1ccc2ncn(-c3cnc(N4CCN(C(=O)CN5CCC(c6ccc(N[C@@H]7CCC(=O)NC7=O)cc6F)CC5)CC4)nc3)c(=O)c2c1` [Example 123, N-[2-cyano-3-[3-[2-[4-[2-[4-[4-[[(3R)-2,6-dioxopiperidin-3-yl]amino]-2-fluorophenyl]piperidin-1-yl]acetyl]piperazin-1-yl]pyrimidin-5-yl]-4-oxoquinazolin-6-yl]oxy-4-fluorophenyl]-3,3-difluoropyrrolidine-1-sulfonamide], the DC50 is 50.7 nM. For the same molecule, the Emax under setting [1] stood at 14%.

`CCN(C)S(=O)(=O)Nc1ccc(F)c(Oc2ccc3ncn(C(C)CCC4CCN(C(=O)CN5CCC(c6ccc(NC7CCC(=O)NC7=O)cc6F)CC5)CC4)c(=O)c3c2)c1C#N` (stereo not drawn) [Example 10, 6-[2-cyano-3-[[ethyl(methyl)sulfamoyl]amino]-6-fluorophenoxy]-3-[4-[1-[2-[4-[4-[(2,6-dioxopiperidin-3-yl)amino]-2-fluorophenyl]piperidin-1-yl]acetyl]piperidin-4-yl]butan-2-yl]-4-oxoquinazoline] returned a DC50 of 41.9 nM. Moreover, under setting [1], the Emax is 12.6%.

With `CCN(C)S(=O)(=O)Nc1ccc(F)c(Oc2ccc3ncn([C@H]4CCC5(CCN(C(=O)CN6CCC(c7ccc8c(C9CCC(=O)NC9=O)nn(C)c8c7)CC6)CC5)C4)c(=O)c3c2)c1Cl` (stereo partly drawn) [Example 166, 6-[2-chloro-3-[[ethyl(methyl)sulfamoyl]amino]-6-fluorophenoxy]-3-[(3S)-8-[2-[4-[3-(2,6-dioxopiperidin-3-yl)-1-methylindazol-6-yl]piperidin-1-yl]acetyl]-8-azaspiro[4.5]decan-3-yl]-4-oxoquinazoline], half-maximal degradation (DC50) was put at 34.5 nM. Also, the Emax under setting [1] amounted to 23.5%.

`CO[C@H]1CCN(S(=O)(=O)Nc2ccc(F)c(Oc3ccc4ncn(-c5cnc(N6CCN(C(=O)CN7CCC(c8ccc(N[C@H]9CCC(=O)NC9=O)cc8F)CC7)CC6)nc5)c(=O)c4c3)c2C#N)C1` [Example 111, (3S)—N-[2-cyano-3-[3-[2-[4-[2-[4-[4-[[(3S)-2,6-dioxopiperidin-3-yl]amino]-2-fluorophenyl]piperidin-1-yl]acetyl]piperazin-1-yl]pyrimidin-5-yl]-4-oxoquinazolin-6-yl]oxy-4-fluorophenyl]-3-methoxypyrrolidine-1-sulfonamide] displayed a DC50 of 18.6 nM. Further, the Emax under setting [1] turned out to be 10.3%.

`CCN(C)S(=O)(=O)Nc1ccc(F)c(Oc2ccc3ncc(C4COC5(CCN(C(=O)CC6(O)CCN(c7cc8c(cc7F)c(N7CCC(=O)NC7=O)nn8C)CC6)CC5)C4)nc3c2)c1C#N` (single isomer, unassigned) [Example 222] registered a DC50 of 20 nM. Also, the maximum response (Emax) under setting [1] was determined as 24.4%.

In turn, `CCN(C)S(=O)(=O)Nc1ccc(F)c(Oc2ccc3ncc(C4CCC5(CCN(C(=O)CN6CCC(c7ccc(NC8CCC(=O)NC8=O)cc7F)CC6)CC5)C4)nc3c2)c1C#N` (stereo not drawn) [Example 220, 7-[2-cyano-3-[[ethyl(methyl)sulfamoyl]amino]-6-fluorophenoxy]-2-[8-[2-[4-[4-[(2,6-dioxopiperidin-3-yl)amino]-2-fluorophenyl]piperidin-1-yl]acetyl]-8-azaspiro[4.5]decan-3-yl]quinoxaline] registered a DC50 of 47 nM. Besides, the Emax under setting [1] is 10.5%.

In turn, `CCN(C)S(=O)(=O)Nc1ccc(F)c(Oc2ccc3ncn(-c4cnc(N5CCN(C(=O)CN6CCC(c7ccc(NC8CCC(=O)NC8=O)cc7F)CC6)CC5)nc4)c(=O)c3c2N)c1C#N` (stereo in doubt) [Example 102, 5-amino-6-[2-cyano-3-[[ethyl(methyl)sulfamoyl]amino]-6-fluorophenoxy]-3-[2-[4-[2-[4-[4-[[(3S)-2,6-dioxopiperidin-3-yl]amino]-2-fluorophenyl]piperidin-1-yl]acetyl]piperazin-1-yl]pyrimidin-5-yl]-4-oxoquinazoline] registered a DC50 of 15 nM. The “HiBit 24 h Emax” value under setting [1] was determined as 9.75%.

The molecule `CCN(C)S(=O)(=O)Nc1ccc(F)c(Oc2ccc3ncn([C@H]4COC5(CCN(C(=O)CN6CCC(c7ccc(N[C@@H]8CCC(=O)NC8=O)cc7F)CC6)CC5)C4)c(=O)c3c2)c1C#N` [Example 42, (3R)-3-[6-[2-cyano-3-[[ethyl(methyl)sulfamoyl]amino]-6-fluorophenoxy]-4-oxoquinazolin-3-yl]-8-[2-[4-[4-[[(3R)-2,6-dioxopiperidin-3-yl]amino]-2-fluorophenyl]piperidin-1-yl]acetyl]-1-oxa-8-azaspiro[4.5]decane] came in with a half-maximal degradation concentration (DC50) of 22.1 nM. The Emax under setting [1] was 8.88%.

`CCN(C)S(=O)(=O)Nc1ccc(F)c(Oc2ccc3ncn([C@H]4COC5(CCN(C(=O)CN6CCC(c7cc(OC)c(NC8CCC(=O)NC8=O)cc7F)CC6)CC5)C4)c(=O)c3c2)c1C#N` (stereo partly drawn) [Example 75, (3R)-3-[6-[2-cyano-3-[[ethyl(methyl)sulfamoyl]amino]-6-fluorophenoxy]-4-oxoquinazolin-3-yl]-8-[2-[4-[4-[(2,6-dioxopiperidin-3-yl)amino]-2-fluoro-5-methoxyphenyl]piperidin-1-yl]acetyl]-1-oxa-8-azaspiro[4.5]decane]: it took 43.2 nM to reach half-maximal degradation (DC50). For the same molecule, the Emax under setting [1] was found to be 8.31%.

Turning to `CCN(C)S(=O)(=O)Nc1ccc(F)c(Oc2ccc3ncn(-c4ccc(N5CCN(C(=O)CN6CCC(c7ccc(N[C@@H]8CCC(=O)NC8=O)cc7F)CC6)CC5)nc4)c(=O)c3c2)c1C#N` [Example 93, 6-[2-cyano-3-[[ethyl(methyl)sulfamoyl]amino]-6-fluorophenoxy]-3-[6-[4-[2-[4-[4-[[(3R)-2,6-dioxopiperidin-3-yl]amino]-2-fluorophenyl]piperidin-1-yl]acetyl]piperazin-1-yl]pyridin-3-yl]-4-oxoquinazoline], the DC50 amounted to 28 nM. Besides, the Emax under setting [1] was found to be 14.1%.

`Cn1nc(C2CCC(=O)NC2=O)c2ccc(C3CCN(CC(=O)N4CCC5(CC4)C[C@@H](n4cnc6ccc(Oc7c(F)ccc(NS(=O)(=O)N8CC[C@@H](F)C8)c7C#N)cc6c4=O)CO5)CC3)cc21` (stereo partly drawn) [Example 165, (3R)—N-[2-cyano-3-[3-[(3R)-8-[2-[4-[3-(2,6-dioxopiperidin-3-yl)-1-methylindazol-6-yl]piperidin-1-yl]acetyl]-1-oxa-8-azaspiro[4.5]decan-3-yl]-4-oxoquinazolin-6-yl]oxy-4-fluorophenyl]-3-fluoropyrrolidine-1-sulfonamide] had a DC50 of 100 nM. The Emax under setting [1] was determined as 17.8%.

As for `COC1CN(S(=O)(=O)Nc2ccc(F)c(Oc3ccc4ncn(-c5cnc(N6CCN(C(=O)CN7CCC(c8ccc(N[C@H]9CCC(=O)NC9=O)cc8F)CC7)CC6)nc5)c(=O)c4c3)c2C#N)C1` [Example 117, N-[2-cyano-3-[3-[2-[4-[2-[4-[4-[[(3S)-2,6-dioxopiperidin-3-yl]amino]-2-fluorophenyl]piperidin-1-yl]acetyl]piperazin-1-yl]pyrimidin-5-yl]-4-oxoquinazolin-6-yl]oxy-4-fluorophenyl]-3-methoxyazetidine-1-sulfonamide], it took 38.3 nM to reach half-maximal degradation (DC50). Besides, under setting [1], the Emax was found to be 9.02%.
